What is called MIC is the lowest concentration found to suppress growth.

Consider 18 compounds from patent publication US6964966B2, “Generation triple-targeting, chiral, broad-spectrum antimicrobial 7-substituted piperidino-quinolone carboxylic acid derivatives, their preparation, compositions and use as medicaments” (Wockhardt Limited, priority 2001, dated 2005).

≈ marks a conversion by molar mass, not a printed value. Where two headings read alike, the source gives them in different places.

Holding throughout (assay type): cell-based
Data set [1] deals with Fluoroquinolone Sensitive Strains. The experiment in a line: In-vitro antimicrobial test, MIC by two-fold serial agar dilution (NCCLS): fluoroquinolone sensitive strains (Table 17). The procedure: (§1) The test method was in accordance with the standard NCCLS protocol (Methods for Dilution Antimicrobial Susceptibility Tests for Bacteria that grow Aerobicially, Approved Standards, M7-A5, Fifth Edition, January 2000).
(§2) The antibacterial activities (minimum inhibitory concentration: MIC, mcg/ml) were determined by using the two-fold serial agar dilution method recommended by NCCLS. The media used for preculture and main culture were Tryptic Soya broth (Difco) and Mueller Hinton medium (Difco), respectively. The Mueller Hinton agar was supplemented with 5% sheep blood for streptococci. Overnight cultures were diluted with buffered saline (pH 7.2) to the final cell density of 5×10^6-10^7 CFU/ml, and each bacterial suspension was applied with a replicator (Denley's multipoint inoculator, UK) onto a series of Mueller-Hinton agar plates containing antibacterial agents at various concentrations. Final inoculum was approximately 10^4 CFU/spot. The plates were incubated for 18 hrs at 37° C. The MIC was defined as the lowest concentration of an antibacterial agent that inhibits the development of visible microbial growth on agar.
For orientation: Agar dilution tests growth on a series of plates holding different concentrations.

Data set [2] relates to J 744 (mouse macrophage). The experiment in a line: Cytotoxicity test (Alamar blue), J 744 cells (Table 23). The settings on record: minimum drug concentration inhibiting Alamar blue color change; 3 hrs drug exposure, then 96 hrs incubation; J 744 mouse macrophage cells. The procedure: (§3) Compounds were evaluated for their cytotoxic potential against two […] viz. […] Freshly grown cells were distributed in microtiter plates at a cell density of 10^5-10^6 cells/well and allowed to adhere and form monolayer by incubating the microtiter plate at 37° C. for 24 hrs. […] Following 3 hrs. of drug exposure, cells were washed with D-MEM and incubated further for 96 hrs. Cytotoxic effects of drugs were monitored through daily microscopic observation and by ascertaining the metabolic status through redox indicator Alamar blue. Healthy actively metabolising cells bring about colour change of Alamar blue from blue to pink within an overnight incubation. Cytotoxic drugs inhibit this reaction resulting into blue coloured wells. Minimum drug concentration inhibiting Alamar blue color change i.e. resulting into blue coloured wells for a given drug is considered cytotoxic concentration.

For data set [3], the system named is V79 (Chinese Hamster Lung). Put plainly: Cytotoxicity test (Alamar blue), V79 cells (Table 23). The settings on record: minimum drug concentration inhibiting Alamar blue color change, 3 hrs drug exposure, then 96 hrs incubation. The procedure: as §3
In general terms: The colour change of resazurin is a common sign of viable cells or microbes.

In data set [4] the test system is Fluoroquinolone-Resistant Strains. The experiment in a line: In-vitro antimicrobial test, MIC by agar dilution (NCCLS): fluoroquinolone-resistant strains (Table 18). The procedure: as §1, §2
Setting [5] is: Escherichia coli, ATCC25922, E. coli ATCC 25922, read-out: MIC, E. coli ATCC 25922.
The mark [6] stands for this setting: Staphylococcus aureus, ATCC 25923 / MSSA, MSSA ATCC 25923, read-out: MIC, MSSA ATCC 25923.
[7] abbreviates: Streptococcus pneumoniae, ATCC49619, S. pneumoniae ATCC 49619, read-out: MIC, S. pneumoniae ATCC 49619.

Take `COc1c(N2CCC(NC(C)=O)C(C)(C)C2)c(F)c(N)c2c(=O)c(C(=O)O)cn(C3CC3)c12` (centres unmarked) [Compound 61, 5-Amino-1-cyclopropyl-6-fluoro-1,4-dihydro-8-methoxy-7-(4-acetylamino-3,3-dimethyl-1-piperidinyl)-4-oxo-quinoline-3-carboxylic acid]: the MIC in data set [1] (setting [5]) was found to be 0.4 µg/mL (≈ 0.869 µM); in data set [1] (setting [6]) it was 0.05 µg/mL (≈ 0.109 µM); in data set [1] (setting [7]), 0.2 µg/mL (≈ 0.434 µM).
Take `Cc1c(N2CC[C@H](N)[C@H](C)C2)c(F)c(N)c2c(=O)c(C(=O)O)cn(C3CC3)c12` (relative stereo) [Compound 111, cis-1-5-Amino-1-cyclopropyl-6-fluoro-1,4-dihydro-8-methyl-7-(4-amino-3-methyl-1-piperidinyl)-4-oxo-quinoline-3-carboxylic acid]: in data set [1], the “MIC, E. coli ATCC 25922” value was determined as 1.56 µg/mL (≈ 4.02 µM) and the “MIC, MSSA ATCC 25923” value amounted to 0.8 µg/mL (≈ 2.06 µM).
As for `N[C@@H]1[C@H]2CN(c3nc4c(cc3F)c(=O)c(C(=O)O)cn4-c3ccc(F)cc3F)C[C@@H]12` [Trovafloxacin, reference compound], the “Cytotoxic concentration, J 744 Macrophage” value in data set [2] was 500 µg/mL.
For `Cc1c(N2CCC(O)CC2)c(F)cc2c(=O)c(C(=O)O)cn(C3CC3)c12` [Compound 83, 1-Cyclopropyl-6-fluoro-8-methyl-7-(4-hydroxy-1-piperidinyl)-1,4-dihydro-4-oxo-quinoline-3-carboxylic acid], the minimal inhibitory concentration (MIC) is 0.05 µg/mL (≈ 0.139 µM) in data set [1] (setting [5]) and 0.1 µg/mL (≈ 0.277 µM) in data set [1] (setting [6]).
As to `CCNC1CCN(c2c(F)c(N)c3c(=O)c(C(=O)O)cn(C4CC4)c3c2OC)CC1(C)C` (centres unmarked) [Compound 66, 5-Amino-1-cyclopropyl-6-fluoro-1,4-dihydro-8-methoxy-7-(4-ethylamino-3,3-dimethyl-1-piperidinyl)-4-oxo-quinoline-3-carboxylic acid], the minimal inhibitory concentration (MIC) in data set [1] (setting [5]) amounted to 0.2 µg/mL (≈ 0.448 µM); in data set [1] (setting [6]), 0.05 µg/mL (≈ 0.112 µM); in data set [1] (setting [7]) it was 0.2 µg/mL (≈ 0.448 µM).
Turning to `Cc1c(N2CC[C@@H](N)[C@H](C)C2)c(F)cc2c(=O)c(C(=O)O)cn(C3CC3)c12` (relative stereo) [Compound 89, trans-1-Cyclopropyl-6-fluoro-1,4-dihydro-8-methyl-7-(4-amino-3-methyl-1-piperidinyl)-4-oxo-quinoline-3-carboxylic acid], in data set [2], the “Cytotoxic concentration, J 744 Macrophage” value is 1000 µg/mL. In data set [3], the “Cytotoxic concentration, V 79 CHL” value came out at 250 µg/mL.
Consider `Cc1c(N2CCC(N)C(C)(C)C2)c(F)cc2c(=O)c(C(=O)O)cn(C3CC3)c12` (centres unmarked) [Compound 94, 1-Cyclopropyl-6-fluoro-1,4-dihydro 8-methyl-7-(4-amino-3,3-dimethyl-1-piperidinyl)-4-oxo-quinoline-3-carboxylic acid], for which the MIC in data set [1] (setting [7]) amounted to 0.05 µg/mL (≈ 0.129 µM).
For the compound `COc1c(N2CC(C)C(O)C(C)C2)c(F)c(N)c2c(=O)c(C(=O)O)cn(C3CC3)c12` (centres unmarked) [Compound 127, 5-Amino-1-cyclopropyl-6-fluoro-1,4-dihydro-8-methoxy-7-(4-hydroxy-3,5-dimethyl-1-piperidinyl)-4-oxo-quinoline-3-carboxylic acid], the MIC in data set [1] (setting [5]) was 0.4 µg/mL (≈ 0.954 µM); in data set [1] (setting [6]), less than 0.006 µg/mL; in data set [1] (setting [7]), 0.1 µg/mL (≈ 0.238 µM).
For the compound `CCc1c(N2CCC(O)C(C)C2)c(F)cc2c(=O)c(C(=O)O)cn(C3CC3)c12` (mixture of isomers) [Compound 100, cis/trans-1-Cyclopropyl-6-fluoro-8-ethyl-7-(4-hydroxy-3-methyl-1-piperidinyl)-1,4-dihydro-4-oxo-quinoline-3-carboxylic acid], in data set [1], the “MIC, E. coli ATCC 25922” value is 0.8 µg/mL; the “MIC, MSSA ATCC 25923” value came out at 0.1 µg/mL; the “MIC, S. pneumoniae ATCC 49619” value worked out at 0.8 µg/mL.
For the compound `CC[C@@H]1CN(c2c(F)cc3c(=O)c(C(=O)O)cn(C4CC4)c3c2C)CC[C@H]1O` (relative stereo) [Compound 88, cis/trans-1-Cyclopropyl-6-fluoro-8-methyl-7-(4-hydroxy-3-ethyl-1-piperidinyl)-1,4-dihydro-4-oxo-quinoline-3-carboxylic acid], in data set [1], the “MIC, E. coli ATCC 25922” value was 0.4 µg/mL (≈ 1.03 µM); the “MIC, MSSA ATCC 25923” value is 0.012 µg/mL (≈ 0.0309 µM); the “MIC, S. pneumoniae ATCC 49619” value turned out to be 0.1 µg/mL (≈ 0.257 µM). The “MIC, E. faecalis ATCC 29212” value in data set [1] (E. faecalis ATCC 29212) is 0.2 µg/mL (≈ 0.515 µM). In addition, in data set [1] (P. aeruginosa 27853), the “MIC, P. aeruginosa 27853” value is 12.5 µg/mL (≈ 32.2 µM). The “MIC, S. sanguis ATCC 10556” value in data set [1] (S. sanguis ATCC 10556 (Viridans Streptococci)) was 0.2 µg/mL (≈ 0.515 µM). The “MIC, Cipro^R S. mitis 938” value in data set [4] (Cipro^R S. mitis 938) was 3.12 µg/mL (≈ 8.03 µM). Also, the “MIC, Cipro^R S. sanguis 941” value in data set [4] (Cipro^R S. sanguis 941) was 3.12 µg/mL (≈ 8.03 µM). The “MIC, FQ^R S. pneumoniae 718” value in data set [4] (FQ^R S. pneumoniae 718) amounted to 3.12 µg/mL (≈ 8.03 µM). Also, the “MIC, MRSA 032” value in data set [4] (MRSA 032) came to 0.8 µg/mL (≈ 2.06 µM).
For `Cc1c(N2CC[C@H](N)[C@H](C)C2)c(F)cc2c(=O)c(C(=O)O)cn(C3CC3)c12` (relative stereo) [Compound 90, cis-1-Cyclopropyl-6-fluoro-1,4-dihydro-8-methyl-7-(4-amino-3-methyl-1-piperidinyl)-4-oxo-quinoline-3-carboxylic acid], in data set [2], the “Cytotoxic concentration, J 744 Macrophage” value came to 1000 µg/mL. Besides, in data set [3], the “Cytotoxic concentration, V 79 CHL” value stood at 125 µg/mL.
Take `Cc1c(N2CCC(N)C(C)(C)C2)c(F)cc2c(=O)c(C(=O)O)cn(C3CC3)c12` (racemic) [Compound 91, (±)1-Cyclopropyl-6-fluoro-1,4-dihydro-8-methyl-7-(4-amino-3,3-dimethyl-1-piperidinyl)-4-oxo-quinoline-3-carboxylic acid]: in data set [2], the “Cytotoxic concentration, J 744 Macrophage” value stood at 1000 µg/mL. For the same compound, the “Cytotoxic concentration, V 79 CHL” value in data set [3] stood at 750 µg/mL.
In the case of `COc1c(N2CCC(N)C(C)(C)C2)c(F)cc2c(=O)c(C(=O)O)cn(-c3ccc(F)cc3F)c12` (centres unmarked) [Compound 17, 1-(2,4-Difluorophenyl)-6-fluoro-1,4-dihydro-8-methoxy-7-(4-amino-3,3-dimethyl-1-piperidinyl)-4-oxo-quinoline-3-carboxylic acid], the MIC came out at 0.4 µg/mL (≈ 0.841 µM) in data set [1] (setting [5]), 0.4 µg/mL (≈ 0.841 µM) in data set [1] (setting [6]) and 1.56 µg/mL (≈ 3.28 µM) in data set [1] (setting [7]).
In the case of `CCNC1C(C)CN(c2c(F)cc3c(=O)c(C(=O)O)cn(C4CC4)c3c2OC)CC1C` (centres unmarked) [Compound 39, 1-Cyclopropyl-6-fluoro-1,4-dihydro-8-methoxy-7-(4-ethylamino-3,5-dimethyl-1-piperidinyl)-4-oxo-quinoline-3-carboxylic acid], the MIC in data set [1] (setting [5]) is 6.25 µg/mL (≈ 14.5 µM); in data set [1] (setting [6]) it was 1.56 µg/mL (≈ 3.62 µM); in data set [1] (setting [7]) it was greater than 6.25 µg/mL.
Taken in the same sequence, the figures for `COc1c(N2CCC(O)C(C)C2)c(F)c(N)c2c(=O)c(C(=O)O)cn(C3CC3)c12` (centres unmarked) [Compound 116, 5-Amino-1-cyclopropyl-6-fluoro-1,4-dihydro-8-methoxy-7-(4-hydroxy-3-methyl-1-piperidinyl)-4-oxo-quinoline-3-carboxylic acid] were 0.4 µg/mL (≈ 0.987 µM), 0.025 µg/mL (≈ 0.0617 µM) and 0.2 µg/mL (≈ 0.493 µM).
On to `Cc1c(N2CCC(N)C(C)(C)C2)c(F)cc2c(=O)c(C(=O)O)cn(C3CC3)c12` (single isomer, unassigned; (-)) [Compound 93, (−)-1-Cyclopropyl-6-fluoro-1,4-dihydro-8-methyl-7-(4-amino-3,3-dimethyl-1-piperidinyl)-4-oxo-quinoline-3-carboxylic acid], for which the MIC in data set [1] (Pseudomonas aeruginosa, P. aeruginosa 27853, read-out: MIC, P. aeruginosa 27853) was 1.56 µg/mL (≈ 4.03 µM); in data set [4] (Staphylococcus aureus, MRSA, MRSA 032, read-out: MIC, MRSA 032), 0.4 µg/mL (≈ 1.03 µM); in data set [4] (Streptococcus mitis, Cipro^R S. mitis 938, read-out: MIC, Cipro^R S. mitis 938), 0.8 µg/mL (≈ 2.06 µM); in data set [4] (Streptococcus pneumoniae, FQ^R S. pneumoniae 718, read-out: MIC, FQ^R S. pneumoniae 718), 0.4 µg/mL (≈ 1.03 µM). The “Cytotoxic concentration, J 744 Macrophage” value in data set [2] came to 1000 µg/mL. Besides, the “Cytotoxic concentration, V 79 CHL” value in data set [3] amounted to 250 µg/mL.
Regarding `Cc1c(N2CCC(N)C(C)(C)C2)c(F)cc2c(=O)c(C(=O)O)cn(C3CC3)c12` (racemic) [Compound 92, (±)-1-Cyclopropyl-6-fluoro-1,4-dihydro-8-methyl-7-(4-amino-3,3-dimethyl-1-piperidinyl)-4-oxo-quinoline-3-carboxylic acid], in data set [1], the “MIC, E. coli ATCC 25922” value stood at 0.05 µg/mL (≈ 0.129 µM) and the “MIC, MSSA ATCC 25923” value came out at 0.025 µg/mL (≈ 0.0645 µM). Further, the “Cytotoxic concentration, J 744 Macrophage” value in data set [2] is greater than 1000 µg/mL. The “Cytotoxic concentration, V 79 CHL” value in data set [3] is greater than 1000 µg/mL.
Consider `COc1c(N2CCC(O)C(C)(C)C2)c(F)c(N)c2c(=O)c(C(=O)O)cn(C3CC3)c12` (centres unmarked) [Compound 125, 5-Amino-1-cyclopropyl-6-fluoro-1,4-dihydro-8-methoxy-7-(4-hydroxy-3,3-dimethyl-1-piperidinyl)-4-oxo-quinoline-3-carboxylic acid], for which the figures for the MIC in data set [1] (setting [5]), in data set [1] (setting [6]) and in data set [1] (setting [7]) were 1.56 µg/mL (≈ 3.72 µM), 0.025 µg/mL (≈ 0.0596 µM) and 0.4 µg/mL (≈ 0.954 µM), respectively.
